The results in this text go back to ChEMBL document CHEMBL1134106, “Novel heteroaryl replacements of aromatic 3-tetrafluoroethoxy substituents in trifluoro-3-(tertiaryamino)-2-propanols as potent inhibitors of cholesteryl ester transfer protein” (Bioorg Med Chem Lett, 2001).

As a reminder, the IC50 is the point on the concentration scale where inhibition reaches its midpoint.

The structures appear in SMILES notation.

Assay [1] deals with T1, Cholesteryl ester transfer protein (Homo sapiens, UniProt P11597).
T1 sequence (P11597 whole entry): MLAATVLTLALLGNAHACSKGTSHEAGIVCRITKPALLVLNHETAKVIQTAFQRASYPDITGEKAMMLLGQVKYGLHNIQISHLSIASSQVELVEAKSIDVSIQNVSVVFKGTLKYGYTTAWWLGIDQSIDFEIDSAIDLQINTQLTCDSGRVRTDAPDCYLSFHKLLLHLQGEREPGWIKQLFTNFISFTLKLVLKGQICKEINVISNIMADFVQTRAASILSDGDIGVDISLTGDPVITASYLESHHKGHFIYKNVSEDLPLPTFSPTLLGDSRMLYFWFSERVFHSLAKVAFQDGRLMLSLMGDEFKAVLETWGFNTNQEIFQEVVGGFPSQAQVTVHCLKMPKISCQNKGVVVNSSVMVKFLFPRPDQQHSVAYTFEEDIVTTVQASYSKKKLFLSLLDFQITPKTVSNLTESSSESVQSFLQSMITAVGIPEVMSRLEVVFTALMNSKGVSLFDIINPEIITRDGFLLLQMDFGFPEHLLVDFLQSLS
Description: Inhibition of recombinant human CETP mediated transfer of [3H]cholesteryl ester from HDL to LDL.

Assay [2] addresses T1, Cholesteryl ester transfer protein. Kind of assay: In vitro human CETP inhibitory activity assessed by measuring the rate of [3H]cholesteryl ester ([3H]CE) from HDL donor particles to LDL acceptor particles using human serum by serum transfer assay.

Take `OC(CN(Cc1ccc(F)c(-c2ccco2)c1)c1cccc(Oc2ccccc2)c1)C(F)(F)F` (configuration not stated): the concentration for half-maximal inhibition (IC50) in assay [1] came to 0.72 µM.
For `OC(CN(Cc1cccc(-c2cccs2)c1)c1cccc(Oc2ccccc2)c1)C(F)(F)F` (configuration not stated), the half-inhibitory concentration (IC50) was 83 µM in assay [2] and 1.12 µM in assay [1].
On the same counts, the results for `OC(CN(Cc1cccc(-c2ccccc2)c1)c1cccc(Oc2ccccc2)c1)C(F)(F)F` (configuration not stated) are 47 µM and 4.42 µM.
`Cc1ccc(CN(CC(O)C(F)(F)F)c2cccc(Oc3ccccc3)c2)cc1-c1ccco1` (configuration not stated): the half-inhibitory concentration (IC50) in assay [1] came to 3.96 µM.
On to `OC(CN(Cc1cccc(-c2cccnc2)c1)c1cccc(Oc2ccccc2)c1)C(F)(F)F` (configuration not stated), for which, in assay [1], the half-maximal inhibitory concentration (IC50) is 14.3 µM.
